In US20240174716A1, “TRANSPORTER PEPTIDES AND APPLICATION THEREOF” (Vacino Biotech Co. Ltd, priority 2022, published 2024):
Several values for one entry are separate records, joined by “and”; a condition that tells them apart may be missing. Equal values may be shown once. Read-outs that look alike come from different tables or passages of the source. Peptide text beside a SMILES is read from it.

Assays:
[1] = In vivo imaging system (IVIS) analysis of fluorescent dye-conjugated transporter peptides; set-up: species or system BALB/c mice; conditions: for quantified fluorescence signal in mouse brain: after 0.5 hour of the injection; for half-life: BALB/c, mouse, brain, intravenous, read-out: half-life of the fluorescence in the mouse brains (converted)
Description: In this Example, the transporter peptide disclosed herein was administered to mice, and the distribution of the transporter peptide in the mice was detected with an in vivo fluorescence imaging system (IVIS).
One (1) mg of each transporter peptides PT-001 (SEQ ID NO: 2), PT-025 (SEQ ID NO: 11), PT-034 (SEQ ID NO: 19), and PT-031 (SEQ ID NO: 17) was dissolved in 1 mL of buffer containing 50 mM sodium bicarbonate/bicarbonate to a final concentration of 1 mg/mL. […] of 10 mg/mL fluorescent dye (VivoTag 680 XL, PerkinElmer, USA) was added to the 1 mL transporter peptide solution, and the mixture was incubated at room temperature in the dark for 1 hour. The dye-labeled product was filtered with a 3 KDa centrifugal filter device (Amicon Ultra-0.5 Centrifugal filter devices, Millipore, USA) and centrifuged at 14,000×g for 15 minutes. The fluorescent dye-conjugated transporter peptide was diluted with 1×PBS to a final volume of 0.2 mL.
BALB/c mice (BioLASCO Taiwan Co., Ltd, Taipei, Taiwan) at the age of 7-8 weeks were divided into a control group (n=1) and a test group (n=3). The mouse in the control group was administered 50 μL of fluorescent dye via tail vein injection. Mice in the group were administered 50 μL of the transporter peptide conjugated with fluorescent dye obtained above via tail vein injection. Mice were photographed using an optical imaging system (U-OI, MlLabs, Netherlands) at 0.5, 1, 2, 4, 6 and 24 hours after the injection for IVIS imaging analysis, with the excitation wavelength of 631 nm, the emission wavelength of 710 nm, and 10-second exposure time. Fluorescence signals of mouse brains were further quantified.

[2] = 10 mg/kg tail vein injection
Description: Brain tissue was collected one hour after the injection and triturated in 1.3 mL of 50 mM sodium bicarbonate/bicarbonate buffer. The brain tissue grinding fluid was centrifuged at 3000 rpm for 5 minutes, the supernatant was taken and further centrifuged at 14000 rpm for 15 minutes. Zero-point-four (0.4) mL of ice-cold methanol was added to 0.1 mL of the brain tissue grinding supernatant. The mixture was shook for 10 minutes, and then centrifuge at 14,000 rpm for 15 minutes. The brain tissue supernatant was then subjected to HPLC analysis whose method is as described in Example 2. The HPLC peak area was calculated at the retention time of 16.9 minutes, and a standard curve was plotted to calculate the content of the transporter peptide in each sample.

Caco-2 cell monolayer = conditions: PT-034 on top of monolayer, 37° C.
Description: In this example, the transport efficiency of the transporter peptide disclosed herein to the Caco-2 cell monolayer was tested to analyze the penetration effect of the transporter peptide on the tissue barrier, and to analyze the ability of the transporter peptide to induce transcytosis of the cell.
Caco-2 cells were plated at 2×10^4 cells/cm^2 on 24-transwell inserts (BD Falcon, 353495) in DMEM medium with 10% FBS and cultured for 21 days to form a monolayer. Monolayers were then confirmed by transepithelial electrical resistance (TEER), and the monolayers which have at least 500-600 Ω cm^2 of TEER were qualified monolayers for the following transcytosis experiment.
HPLC was conducted by using a Water ACQUITY Arc system. The chromatographic separation was performed on a C18 column (Waters XSelect HSS T3 […], 4.6 mm×250 mm). Column temperature was maintained and operated at 40° C. The mobile phase consisted of A-0.1% trifluoroacetic acid in water and B-100% methanol. Separation was performed according to the following gradient program: 0 min-10% B, 6 min-30% B, 12 min-50% B, 18 min-90% B, 23 min-10% B. The flow rate of the mobile phase was at 1 mL/min, the injection volume of the sample was 20 μL, and the total run time was within 30 mins.
The caco-2 monolayers with TEER at 680 Ω cm^2 were equilibrated in DMEM medium (serum free). […] of PT-034 (SEQ ID NO: 19) was applied to the top of Caco-2 monolayers at 37° C. Samples of both upper and lower solution were collected at 0, 0.25, 0.5, 1, 2, 6 hours. Peptides were purified from the sample solution by solid phase extraction (SPE) using C-18 tips (Cat. no. 87784, Pierce, Waltham, Massachusetts, USA). Each sample was supplemented with a final concentration of 11.43 μM PT-034 as internal control. 300 μL sample was absorbed by the C18 tip and eluted by 100 μL methanol. The sample was then subjected to HPLC analysis. The HPLC peak area was calculated at retention time of 16.9 minutes, and a standard curve was plotted for calculating the contents of the transporter peptide in the sample solutions.

[3] = 1 mg/kg dye-conjugated peptide, tail vein injection, 0.5, 1, 2, 4 and 6 hours after injection

Row | SMILES | distribution of fluorescent signal in mice (IVIS) [1, 3] | quantified fluorescence signal in mouse brain ([1]; 1 mg/kg, tail vein injection) | half-life ([1]; 1 mg/kg, tail vein injection) | Content of the transporter peptid in the brain tissue ([2]; brain collected one hour after injection, individual mouse) | Injection dose/brain tissue weight ([2]; one hour after injection, individual mouse) | average transport efficiency to the brain ([2]; one hour after injection, mean of 2 mice) | transporter peptide penetrated the Caco-2 cell monolayer (Caco-2 cell monolayer; 0.25 hours) | transporter peptide penetrated the Caco-2 cell monolayer (Caco-2 cell monolayer; 1 hour) | transporter peptide penetrated the Caco-2 cell monolayer (Caco-2 cell monolayer; 2 hours) | transporter peptide penetrated the Caco-2 cell monolayer (Caco-2 cell monolayer; 6 hours) | distribution of fluorescent signal in mice (IVIS) ([1]; 10 mg/kg dye-conjugated peptide, tail vein injection, 1, 2, 4 and 6 hours after injection) | quantified fluorescence signal in mouse brain compared with control group (Dye) ([1]; 10 mg/kg, tail vein injection, after 1 hour of the injection) | half-life ([1]; 10 mg/kg, tail vein injection)
1 | CC[C@H](C)[C@H](NC(=O)[C@@H](N)CC(=O)O)C(=O)N[C@@H](CO)C(=O)N[C@H](C(=O)N[C@@H](CC(C)C)C(=O)N[C@@H](CCSC)C(=O)N[C@@H](CCCCN)C(=O)N[C@@H](CCC(=O)O)C(=O)N[C@@H](Cc1ccc(O)cc1)C(=O)N[C@@H](CC(=O)O)C(=O)O)C(C)C [PT-001, DISVLMKEYD] (H-DISVLMKEYD-OH) | enriched in the brain and spine | high levels of fluorescent signals | ~5 h |  |  |  |  |  |  |  |  |  | 
2 | CC[C@H](C)[C@H](NC(=O)[C@@H](N)CC(=O)O)C(=O)N[C@@H](CO)C(=O)N[C@H](C(=O)N[C@@H](CC(C)C)C(=O)N[C@@H](CC(=O)O)C(=O)N[C@@H](CCCCN)C(=O)N[C@@H](CCC(=O)O)C(=O)N[C@@H](Cc1ccc(O)cc1)C(=O)N[C@@H](CC(=O)O)C(=O)O)C(C)C [PT-025, DISVLDKEYD] (H-DISVLDKEYD-OH; N-terminus and C-terminus assumed) | enriched in the brain and spine | high levels of fluorescent signals | ~5 h |  |  |  |  |  |  |  |  |  | 
3 | CC[C@H](C)[C@H](NC(=O)[C@@H](N)CC(=O)O)C(=O)N[C@@H](CO)C(=O)N[C@H](C(=O)N[C@@H](CC(C)C)C(=O)N[C@@H](CCSC)C(=O)N[C@@H](CCCCN)C(=O)N[C@@H](CCC(=O)O)C(=O)N[C@@H](Cc1ccc(O)cc1)C(=O)N[C@@H](CC(N)=O)C(=O)O)C(C)C [PT-031, DISVLMKEYN] (H-DISVLMKEYN-OH) | enriched in the brain and spine | high levels of fluorescent signals | ~5 h |  |  |  |  |  |  |  |  |  | 
4 | CC[C@H](C)[C@H](NC(=O)[C@@H](N)CC(=O)O)C(=O)N[C@@H](CO)C(=O)N[C@H](C(=O)N[C@@H](CC(C)C)C(=O)N[C@@H](CCSC)C(=O)N[C@@H](CCCCN)C(=O)N[C@@H](CCC(=O)O)C(=O)N[C@@H](Cc1ccc(O)cc1)C(=O)N[C@@H](CCC(N)=O)C(=O)O)C(C)C [PT-034, DISVLMKEYQ] |  |  |  | 25.9 µg and 25.5 µg | 23.48% ID/g of brain and 22.09% ID/g of brain | 22.79 % ID/g of brain | about 8% | ~40% | ~42% | ~56% | enriched in the brain and spine | high level of fluorescent signal | ~5 h
